Results taken from PMC12298876, “Angiotensin-Converting Enzyme Inhibitory Activity of Selected Phenolic Acids, Flavonoids, Their O-Glucosides, and Low-Molecular-Weight Phenolic Metabolites in Relation to Their Oxidation Potentials” (Metabolites, 2025).
Like-named read-outs stand apart in the source and are kept apart here. Marks after values point to notes of the source that are not given here.

Tests used:
[1] = First anodic oxidation potential by differential pulse voltammetry (DPV); assay type: physicochemical; conditions: for Anodic Peak Potential Epa: DPV, first anodic peak, 0.25 mM standard in 0.1 M Britton-Robinson buffer pH 6.0 in 80% methanol, glassy carbon vs Ag/AgCl, 100 mV/s; for antioxidant power class based on the first oxidation potential: low-molecular-weight phenolic metabolites, classes according to Blasco et al. [47]
Description: A potentiostat/galvanostat G 750 (Gamry Instruments, Warminster, USA) was used for voltametric experiments. A conventional three-electrode system: a 3 mm diameter glassy carbon working electrode (BAS MF-2012), an Ag/AgCl electrode as a reference electrode, and a platinum as counter electrode, was used in the study. Differential pulse voltametric experiments were performed with phenolic acids and flavonoids prepared in a 1:1 (v/v) mixture of 500 µM standard solution and […] Britton-Robinson (B-R) buffer (pH 6.0 in 80% methanol), which also served as a supporting electrolyte. The voltametric experiments were performed at room temperature using an electrochemical cell (volume 200 µL), to which the analyzed standard solution, mixed previously with the buffer solution, was introduced. The differential pulse voltammograms were acquired in the range of −100 to 1300 mV at a scanning rate of 100 mV/s. Before use, the surface of the glassy carbon electrode was carefully polished with 0.05 µm alumina paste, ultrasonically rinsed in deionized water, and then washed with methanol. This procedure was repeated after each cycle. For test purposes, the first anodic oxidation potential was recorded (mV).

ACE = test system: ACE; set-up: method as in PMID 23185345; conditions: same fluorometric method as this study; read-out: IC50 (ACE inhibition); cited from earlier work
[2] = biological target: T1, Angiotensin-converting enzymes (ACE) from porcine kidneys (EC 3.4.15.1) (Sus scrofa, UniProt F1RRW5); experiment: biochemical; conditions: for higher value of IC50 as compared to the IC50 of the respective aglycon / lower IC50 in relation to the respective aglycone: ACE inhibition; for higher value of IC50 as compared to the IC50 of the respective aglycon: glucoside vs aglycon; for lower IC50 in relation to the respective aglycone: glycoside vs aglycon
T1 construct: Angiotensin-converting enzymes (ACE) from porcine kidneys (EC 3.4.15.1) were purchased from Sigma-Aldrich; purchased Sigma-Aldrich (St. Louis, MO, USA); host or cells: porcine kidneys (tissue-derived enzyme)
T1 sequence (F1RRW5 34-1309): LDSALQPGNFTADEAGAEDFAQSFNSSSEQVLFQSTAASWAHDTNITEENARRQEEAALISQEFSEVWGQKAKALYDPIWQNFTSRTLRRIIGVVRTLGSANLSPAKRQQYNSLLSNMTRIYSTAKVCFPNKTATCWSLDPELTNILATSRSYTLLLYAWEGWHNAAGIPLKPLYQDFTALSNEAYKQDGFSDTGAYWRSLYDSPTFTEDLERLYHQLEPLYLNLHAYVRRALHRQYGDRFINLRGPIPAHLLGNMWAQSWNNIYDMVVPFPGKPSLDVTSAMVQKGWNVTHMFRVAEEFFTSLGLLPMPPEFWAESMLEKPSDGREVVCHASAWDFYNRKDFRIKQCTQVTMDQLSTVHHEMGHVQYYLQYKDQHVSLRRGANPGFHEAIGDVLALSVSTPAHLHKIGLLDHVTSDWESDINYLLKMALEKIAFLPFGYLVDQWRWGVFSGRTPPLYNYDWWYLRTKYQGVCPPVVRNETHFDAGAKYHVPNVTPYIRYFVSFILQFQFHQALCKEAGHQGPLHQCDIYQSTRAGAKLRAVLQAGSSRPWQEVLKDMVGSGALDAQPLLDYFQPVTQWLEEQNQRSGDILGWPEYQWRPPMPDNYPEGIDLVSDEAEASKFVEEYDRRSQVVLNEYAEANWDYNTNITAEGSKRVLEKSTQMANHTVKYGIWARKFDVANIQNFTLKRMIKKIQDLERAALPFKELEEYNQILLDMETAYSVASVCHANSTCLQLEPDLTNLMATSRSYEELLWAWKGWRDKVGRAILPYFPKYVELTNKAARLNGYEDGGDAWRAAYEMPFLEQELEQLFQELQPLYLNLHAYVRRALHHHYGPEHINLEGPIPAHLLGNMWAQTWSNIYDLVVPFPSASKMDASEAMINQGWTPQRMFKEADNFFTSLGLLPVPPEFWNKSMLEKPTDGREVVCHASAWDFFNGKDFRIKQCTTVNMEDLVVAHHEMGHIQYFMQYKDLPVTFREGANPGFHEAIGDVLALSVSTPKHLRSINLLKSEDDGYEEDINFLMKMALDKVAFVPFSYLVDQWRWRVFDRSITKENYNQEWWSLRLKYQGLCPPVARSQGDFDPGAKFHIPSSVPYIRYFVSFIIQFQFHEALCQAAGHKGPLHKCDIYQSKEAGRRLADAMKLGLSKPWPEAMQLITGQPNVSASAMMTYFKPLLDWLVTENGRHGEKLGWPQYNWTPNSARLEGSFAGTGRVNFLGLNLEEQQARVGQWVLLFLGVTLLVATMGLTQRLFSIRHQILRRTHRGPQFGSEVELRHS
Description: Angiotensin-converting enzymes (ACE) from porcine kidneys (EC 3.4.15.1) were purchased from Sigma-Aldrich (St. Louis, MO, USA). A three-tris-base buffer was as follows: buffer A: 300 mM Tris-base buffer (pH 8.3) with 2 mM ZnCl2; buffer B: 150 mM Tris-base buffer (pH 8,3); and buffer C: 150 mM Tris-base buffer (pH 8.3) with […] NaCl. The substrate o-aminobenzoylglycyl-p-nitorphenylalanylproline (Abz-Gly-Phe(NO2)-Pro) was obtained from BACHEM (Bubendorf, Switzerland). Standards of phenolic acids, flavonoids, glucosides, and low-molecular-weight phenolic metabolites were obtained from Sigma-Aldrich (St. Louis, MO, USA) and Extrasynthese (Genay, France). Water was purified using the Mili-Q system (Milipore, Bedford, MA, USA).
Stock solutions at 1 mM of selected phenolic acids, flavonoids, their O-glucosides, and low-molecular-weight phenolic metabolites were prepared in 80% methanol. The concentration was confirmed by a UV measurement according to Franke et al.. A wide range of concentrations of each compound was prepared by serial dilutions in deionized water to determine the IC50 value. […] The ACE inhibitory activity was obtained from three repetitions (n = 3) for each concentration.
Angiotensin-converting enzyme (ACE) activity inhibitory assay was performed according to the method of Sentandreu and Toldra. The procedure was based on the hydrolysis of the internally quenched substrate o-aminobenzoylglycyl-p-nitorphenylalanylproline (Abz-Gly-Phe(NO2)-Pro) by the reaction of ACE. The fluorescence generated by the liberation of the product (the o-aminobenzoylglycine group) was read in a microplate multiscan fluorometer. The production of fluorescence was inhibited by the presence of functional compounds with an ACE inhibitory effect. The fluorescence was measured immediately after mixing (0 min) and then after 30 min of reaction at an excitation of 365 nm and an emission of 405 nm. To calculate the % of inhibition of ACE, the following equation was used:Relative ACE activity% = 100 − (ΔRFUsample × 100/ΔRFUnegative control), where ΔRFU = RFU at time 30 – RFU at time 0.

[3] = IC50 Value (ACE inhibitory activity), porcine kidney ACE, substrate Abz-Gly-Phe(NO2)-Pro, fluorescence after 30 min, mean ± SD
[4] = porcine kidney ACE, substrate Abz-Gly-Phe(NO2)-Pro, fluorescence after 30 min, mean ± SD, read-out: IC50 Value (ACE inhibitory activity)

| SMILES | Anodic Peak Potential Epa [1] | IC50 [2, 3] | IC50 [2, 4] | other results |
| --- | --- | --- | --- | --- |
| O=c1cc(-c2ccc(O)cc2)oc2cc(O)cc(O)c12 [Apigenin] | 810 ± 6 ^c mV | 0.337 ± 0.00372 mM | – | IC50 (ACE): 196 µM |
| O=C(O)c1cc(O)ccc1O [Gentisic acid] | 622 ± 8 ^c mV | 0.834 ± 0.00926 mM | – | IC50 ([2]; IC50 (ACE inhibition), values of this study restated in mM in the discussion): 0.834 mM |
| COc1cc(CC(=O)O)ccc1O [HVA, 2-(3-methoxy-4-hydroxyphenyl)acetic acid] | 643 ± 5 ^e mV | 1.46 mM | – | antioxidant power class based on the first oxidation potential [1]: moderate antioxidant power (moderate antioxidant power (0.3 V < Epa < 0.8 V)); ACE inhibitory activity lower than that of reduced glutathione (GSH) ([2]; ratio to the IC50 of GSH): about 35 fold |
| O=c1c(OC2OC(CO)C(O)C(O)C2O)c(-c2ccc(O)c(O)c2)oc2cc(O)cc(O)c12 [Hyperoside, quercetin-3-O-D-galactoside] | 307 ± 3 ^h mV | 0.1572 ± 0.00145 mM | – | higher value of IC50 as compared to the IC50 of the respective aglycon [2]: 30% |
| O=c1c(OC2OC(CO)C(O)C(O)C2O)c(-c2ccc(O)cc2)oc2cc(O)cc(O)c12 (stereo not shown) [Kaempferol-3-O-glucoside] | 359 ± 3 ^fg mV | 0.11 ± 0.00356 mM | – | lower IC50 in relation to the respective aglycone [2]: 16% |
| O=c1c(O)c(-c2ccc(O)cc2)oc2cc(OC3OC(CO)C(O)C(O)C3O)cc(O)c12 (stereo not shown) [Kaempferol-7-O-glucoside] | 419 ± 6 ^f mV | – | 0.0977 ± 0.00208 mM | lower IC50 in relation to the respective aglycone [2]: 26% |
| O=c1cc(-c2ccc(OC3OC(CO)C(O)C(O)C3O)c(O)c2)oc2cc(O)cc(O)c12 (stereo not shown) [Luteolin-4′-O-glucoside] | 828 ± 5 ^b mV | – | 0.0889 ± 0.00168 mM | higher value of IC50 as compared to the IC50 of the respective aglycon [2]: 15% |
| O=c1cc(-c2ccc(O)c(O)c2)oc2cc(OC3OC(CO)C(O)C(O)C3O)cc(O)c12 (stereo not shown) [Luteolin-7-O-glucoside] | 445 ± 3 ^e mV | 0.0615 ± 0.00162 mM | – | lower IC50 in relation to the respective aglycone [2]: 20% |
| COC(=O)CCc1ccc(O)cc1 [MET, 3-(4-hydroxyphenyl)propionic methyl ester] | 574 ± 5 ^f mV | – | 0.726 ± 0.00571 mM | antioxidant power class based on the first oxidation potential [1]: moderate antioxidant power (moderate antioxidant power (0.3 V < Epa < 0.8 V)) |
| O=C1CC(c2ccc(O)cc2)Oc2cc(OC3OC(CO)C(O)C(O)C3O)cc(O)c21 (stereo not shown) [Naringenin-7-O-glucoside] | 830 ± 8 ^ab mV | – | 0.3572 ± 0.00199 mM | lower IC50 in relation to the respective aglycone [2]: 9% |
| O=C1C[C@@H](c2ccc(O)cc2)Oc2cc(O)cc(O)c21 [Naringenin] | 819 ± 7 ^bc mV | – | 0.391 mM | – |
| OCC1OC(Oc2cc3c(O)cc(O)cc3[o+]c2-c2ccc(O)cc2)C(O)C(O)C1O (stereo not shown) [Pelargonidin-3-O-glucoside] | 473 ± 5 ^d mV | – | 0.3769 ± 0.00261 mM | higher value of IC50 as compared to the IC50 of the respective aglycon [2]: 29% |
| Oc1ccc(-c2[o+]c3cc(O)cc(O)c3cc2O)cc1 [Pelargonidin] | 228 ± 5 ^j mV | – | 0.293 ± 0.0034 mM | – |
| O=C(O)c1ccc(O)c(O)c1 [Protocatechuic acid] | 417 ± 12 ^e mV | – | 6.235 ± 0.042 mM | Anodic Peak Potential Epa ([1]; listed as protocatechuic acid): 417 mV; IC50 ([2]; values of this study restated in mM in the discussion, read-out: IC50 (ACE inhibition)): 6.24 mM |
| O=c1c(O)c(-c2ccc(O)c(O)c2)oc2cc(O)cc(O)c12 [Quercetin] | 330 ± 4 ^g mV | – | 0.121 ± 0.00156 mM | – |
| COc1cc(/C=C/C(=O)O)cc(OC)c1O [Sinapic acid] | 618 ± 7 ^c mV | 0.493 ± 0.00614 mM | – | – |
| COc1cc(C(=O)O)cc(OC)c1O [Syringic acid] | 731 ± 9 ^a mV | – | 2.76 ± 0.0363 mM | – |
| COc1cc(C(=O)O)ccc1O [Vanillic acid] | 748 ± 10 ^a mV | – | 4.11 ± 0.0483 mM | Anodic Peak Potential Epa ([1]; listed as vanillic acid): 748 mV |
| O=C(O)C=Cc1ccc(O)cc1 [p-Coumaric acid] | 672 ± 10 ^b mV | – | 0.315 ± 0.0098 mM | Anodic Peak Potential Epa ([1]; listed as p-coumaric acid): 672 mV |
| C[C@@H]1O[C@@H](O[C@H]2[C@H](Oc3cc(O)c4c(=O)cc(-c5ccc(O)cc5)oc4c3)O[C@H](CO)[C@@H](O)[C@@H]2O)[C@H](O)[C@H](O)[C@H]1O [rhoifolin, reference compound] | – | – | – | IC50 (ACE): 183 µM |
